From ChEMBL document CHEMBL1133772, “In vitro and in vivo evaluation of dihydropyrimidinone C-5 amides as potent and selective alpha(1A) receptor antagonists for the treatment of benign prostatic hyperplasia” (J Med Chem, 2000)
pKi: −log10 of the molar value.

Legend:
Rattus norvegicus [1] = organism: Rattus norvegicus; experiment: Inhibition of A61603-induced contraction; n=4 and data for each concentration was averaged (SEM<10%) in rat.; assay type: functional
Rattus norvegicus [2] = organism: Rattus norvegicus; experiment: Duration of action with repeated challenges of A61603 agonist, n=4, data from each time point was averaged (SEM<10%) in rat.; assay type: functional
[3] = t1/2 in rat; assay type: ADME, organism-based; details: in vivo
[4] = target: T1, Alpha-1A adrenergic receptor (Homo sapiens, UniProt P35348); experiment: Evaluated for the ability to displace [125I]- HEAT from human cloned Alpha-1A adrenergic receptor stably expressed in CHO cells.; assay type: cell-based
T1 sequence (P35348 whole entry): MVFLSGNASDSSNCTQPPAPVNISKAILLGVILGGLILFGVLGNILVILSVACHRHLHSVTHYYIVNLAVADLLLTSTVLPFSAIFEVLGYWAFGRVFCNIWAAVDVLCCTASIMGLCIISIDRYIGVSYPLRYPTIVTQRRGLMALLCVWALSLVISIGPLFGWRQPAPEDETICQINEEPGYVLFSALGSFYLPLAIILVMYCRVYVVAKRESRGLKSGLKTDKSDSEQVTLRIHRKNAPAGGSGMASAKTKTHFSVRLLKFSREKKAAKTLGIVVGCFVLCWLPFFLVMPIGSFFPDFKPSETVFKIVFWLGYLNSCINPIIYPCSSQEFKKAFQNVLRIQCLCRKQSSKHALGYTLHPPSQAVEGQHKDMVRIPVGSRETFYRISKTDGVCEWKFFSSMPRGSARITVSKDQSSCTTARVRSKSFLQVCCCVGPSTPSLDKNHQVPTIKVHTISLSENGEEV

[5] = Bioavailability in rat; assay type: ADME, organism-based; details: in vivo
Rattus norvegicus [6] = organism: Rattus norvegicus; experiment: Duration of action with repeated challenges of A61603 agonist in rat; assay type: functional
[7] = target: T2, Alpha-1B adrenergic receptor (Homo sapiens, UniProt P35368); experiment: Evaluated for the ability to displace [125I]- HEAT from human cloned Alpha-1B adrenergic receptor stably expressed in LM cells.; assay type: cell-based
T2 sequence (P35368 whole entry): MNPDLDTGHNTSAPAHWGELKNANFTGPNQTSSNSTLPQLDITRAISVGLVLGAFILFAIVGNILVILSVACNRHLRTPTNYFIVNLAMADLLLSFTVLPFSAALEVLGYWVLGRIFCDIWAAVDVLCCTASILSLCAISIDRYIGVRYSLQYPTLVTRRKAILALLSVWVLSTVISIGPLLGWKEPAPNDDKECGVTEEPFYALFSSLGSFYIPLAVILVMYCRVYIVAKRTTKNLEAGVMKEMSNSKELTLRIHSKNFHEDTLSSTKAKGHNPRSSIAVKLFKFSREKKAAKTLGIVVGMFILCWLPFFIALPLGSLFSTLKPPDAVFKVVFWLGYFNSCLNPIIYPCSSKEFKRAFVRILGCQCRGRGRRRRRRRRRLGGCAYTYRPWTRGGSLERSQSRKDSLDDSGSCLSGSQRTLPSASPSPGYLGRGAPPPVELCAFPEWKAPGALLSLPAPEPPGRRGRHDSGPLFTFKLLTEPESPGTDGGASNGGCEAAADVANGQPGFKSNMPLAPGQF

[8] = target: T3, Alpha-1D adrenergic receptor (Homo sapiens, UniProt P25100); experiment: Evaluated for the ability to displace [125I]- HEAT from human cloned Alpha-1D adrenergic receptor stably expressed in HEK cells.; assay type: cell-based, HEK293
T3 sequence (P25100 whole entry): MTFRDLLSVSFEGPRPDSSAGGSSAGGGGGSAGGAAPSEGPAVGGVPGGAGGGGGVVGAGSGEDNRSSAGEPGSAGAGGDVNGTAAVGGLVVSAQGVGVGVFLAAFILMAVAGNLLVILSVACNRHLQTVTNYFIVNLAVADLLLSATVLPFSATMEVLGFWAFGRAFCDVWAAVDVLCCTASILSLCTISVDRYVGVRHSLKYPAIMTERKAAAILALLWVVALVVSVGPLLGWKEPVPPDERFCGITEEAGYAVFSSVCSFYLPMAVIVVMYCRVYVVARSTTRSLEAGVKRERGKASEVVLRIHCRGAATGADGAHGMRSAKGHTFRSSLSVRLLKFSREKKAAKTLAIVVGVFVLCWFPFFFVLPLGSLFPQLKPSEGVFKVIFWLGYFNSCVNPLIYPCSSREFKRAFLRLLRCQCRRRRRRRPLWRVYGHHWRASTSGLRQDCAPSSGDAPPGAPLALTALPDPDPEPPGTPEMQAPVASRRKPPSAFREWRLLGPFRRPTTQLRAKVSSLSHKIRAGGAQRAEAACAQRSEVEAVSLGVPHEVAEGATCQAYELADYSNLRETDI

Canis familiaris [9] = organism: Canis familiaris; experiment: The compound was evaluated for the inhibition of phenylephrine-induced contraction in dog.; assay type: functional, Canis lupus familiaris
Canis familiaris [10] = organism: Canis familiaris; experiment: Dose effecting a 20 mmHg change in diastolic blood pressure in dog.; assay type: functional, Canis lupus familiaris, Artery
Rattus norvegicus [11] = organism: Rattus norvegicus; experiment: Evaluated for the inhibition of A61603-induced prostate contraction in rat; assay type: functional, Prostate gland
Rattus norvegicus [12] = organism: Rattus norvegicus; experiment: Evaluated for the inhibition of A61603-induced contraction; n=4 and data for each concentration was averaged (SEM<10%) in rat.; assay type: functional
Canis familiaris [13] = organism: Canis familiaris; experiment: Evaluated for the inhibition of phenylephrine-induced contraction (SEM<10%) in dog.; assay type: functional, Canis lupus familiaris
Canis familiaris [14] = organism: Canis familiaris; experiment: Dose effecting a 20 mmHg change in diastolic blood pressure (SEM<10%) in dog.; assay type: functional, Canis lupus familiaris, Artery
[15] = Bioavailability in dog (dose 0.5 mg/kg i.v. and 1 mg/kg p.o.); assay type: ADME, organism-based, Canis lupus familiaris; details: in vivo, po
[16] = Plasma half-life from intravenous dose in dog.; assay type: ADME, organism-based, Canis lupus familiaris
Canis familiaris [17] = organism: Canis familiaris; experiment: Compound was evaluated for the inhibition of phenylephrine-induced contraction in dog.; assay type: functional, Canis lupus familiaris
[18] = target: T1, Alpha-1A adrenergic receptor; experiment: Ability to displace [125I]- HEAT from human cloned Alpha-1A adrenergic receptor stably expressed in CHO cells.; assay type: cell-based
[19] = target: T3, Alpha-1D adrenergic receptor; experiment: Ability to displace [125I]- HEAT from human cloned Alpha-1D adrenergic receptor stably expressed in HEK cells.; assay type: cell-based, HEK293
[20] = The compound was evaluated for plasma half-life from intravenous dose in dog.; assay type: ADME, organism-based, Canis lupus familiaris
[21] = The compound was evaluated for the bioavailability when dosed 0.5 mg/kg intravenously and 1 mg/kg perorally in dog.; assay type: ADME, organism-based, Canis lupus familiaris; details: in vivo, po

Structure (SMILES) | half-life [3] | pKi [4] | bioavailability [5] | pKi [7] | pKi [8] | Duration (Rattus norvegicus [6]) | DBP-20 (Canis familiaris [10]) | AD50 (Rattus norvegicus [11]) | AD50 (Canis familiaris [17]) | further results
CCOc1ccccc1OCCN[C@H](C)Cc1ccc(OC)c(S(N)(=O)=O)c1 [TAMSULOSIN] | – | – | – | – | – | – | – | – | – | AD50 (Rattus norvegicus [1]): 3 µg/kg; Duration (Rattus norvegicus [2]): 3.5 h
COc1cc2nc(N3CCN(C(=O)C4CCCO4)CC3)nc(N)c2cc1OC (stereo not drawn) [TERAZOSIN] | – | – | – | – | – | – | – | – | – | AD50 (Rattus norvegicus [12]): 52 µg/kg; IUP AD50 (Canis familiaris [13]): 97 µg/kg; DBP-20 (Canis familiaris [14]): 74 µg/kg
COCC1=C(C(=O)NCCCN2CCC(c3ccccn3)CC2)[C@@H](c2ccc(F)c(F)c2)NC(=O)N1 | 7 h | 9.35 | 0% | 6.63 | 6.31 | 0.25 h | – | 12 µg/kg | – | bioavailability [15]: 48%; half-life [16]: 5.58 h
CC1=C(C(=O)NCCCN2CCC(c3ccc(F)cc3C#N)CC2)[C@@H](c2ccc(F)c(F)c2)NC(=O)N1C | 2.2 h | 9.92 | 15% | 6.89 | 6.47 | 2.5 h | >300 µg/kg | 7 µg/kg | 10 µg/kg | bioavailability [15]: 27%; half-life [16]: 2.13 h
CC1=C(C(=O)NCCCN2CCC(c3ccc(F)cc3)CC2)[C@@H](c2ccc(F)c(F)c2)NC(=O)N1 | 1.7 h | – | < 6% | 7.40 | – | 0.5 h | 143 µg/kg | 1.8 µg/kg | 7 µg/kg | pKi [18]: 9.41; pKi [19]: 6.62
COCC1=C(C(=O)NCCCN2CCC(c3ccc(F)cc3)CC2)[C@@H](c2ccc(F)c(F)c2)NC(=O)N1 | 6.47 h | – | 26% | 7.39 | 6.59 | 1 h | >300 µg/kg | 4.6 µg/kg | 25 µg/kg | half-life [20]: 7.77 h; pKi [18]: 9.62; bioavailability [21]: 40%

More lines, main results first:

half-life [3] | pKi [4] | bioavailability [5] | pKi [7] | pKi [8] | Structure (SMILES) | Duration (Rattus norvegicus [6]) | DBP-20 (Canis familiaris [10]) | AD50 (Rattus norvegicus [11]) | AD50 (Canis familiaris [17]) | further results
2.7 h | 9.60 | 0% | 6.80 | 6.77 | CC1=C(C(=O)NCCCN2CCC(c3ccccc3C#N)CC2)[C@@H](c2ccc(F)c(F)c2)NC(=O)N1 | <0.5 h | >300 µg/kg | 3 µg/kg | – | IUP AD50 (Canis familiaris [9]): 6 µg/kg
0.417 h | 9.77 | 0% | 7.06 | 6.67 | CC1=C(C(=O)NCCCN2CCC(c3ccc(F)cc3C#N)CC2)[C@@H](c2ccc(F)c(F)c2)NC(=O)N1 | 1.5 h | >300 µg/kg | 1.5 µg/kg | 5 µg/kg | –
